What was measured:
Assay type in all cases: cell-based
Parameters in all cases: key: +: active; -: inactive
Settings in all cases: agar plates, 1 to 100 milligrams/liter
Staphylococcus aureus = test: standard plate dilution method, Staphylococcus aureus
Experimental: (§1) The culture medium employed permits susceptibility testing of fastidious microorganisms towards antibiotics, sulfonamides and other chemotherapeutic agents. Tryptone soy agar (oxoid) of the following composition is the culture medium. In the test procedure, the amount of a compound required to give complete inhibition or no inhibition of the microbial growth on the agar plates was determined. The compound selected for evaluation is added to the agar medium to give concentrations of one, ten and one hundred milligrams per liter. A series of plates with these concentrations is prepared. Plates containing agar alone are included as controls. Ten percent horse serum is added to one series of such plates. Aliquots of broth culture of each of nine species of microorganisms are innoculated onto the agar plates containing the various compound concentrations and onto the control plates. The plates are incubated at 37° C. in a 10 percent carbon dioxide atmosphere for 18 to 25 hours. The microbial growth on each plate is read visually, and minimal inhibitory concentrations are recorded.

Escherichia coli = test: standard plate dilution method, Escherichia coli
Experimental: as §1

Bacillus Subtilus = test: standard plate dilution method, Bacillus subtilus
Experimental: as §1

Mima polymorpha = test: standard plate dilution method, Mima polymorpha
Experimental: as §1

Herellea vaginicola = test: standard plate dilution method, Herellea vaginicola
Experimental: as §1

Pseudmonas aeruginosa = test: standard plate dilution method, Pseudomonas aeruginosa
Experimental: as §1

Streptococcus Sp = test: standard plate dilution method, Streptococcus sp.
Experimental: as §1

Cc1ccc2c(=O)c(C(=O)O)cn3c2c1OCC3C (stereo not drawn) [Example 39 (acid)]
Microorganism SA (growth inhibition) (Staphylococcus aureus): -
Microorganism EC (growth inhibition) (Escherichia coli): +
Microorganism BS (growth inhibition) (Bacillus Subtilus): +
Microorganism MP (growth inhibition) (Mima polymorpha): +
Microorganism HV (growth inhibition) (Herellea vaginicola): +
Microorganism PA (growth inhibition) (Pseudmonas aeruginosa): +
Microorganism SS (growth inhibition) (Streptococcus Sp): +

CCOC(=O)c1cn2c3c(c(C)ccc3c1=O)OCC2C (stereo not drawn) [Example 39 (ester)]
Microorganism SA (growth inhibition) (Staphylococcus aureus): -
Microorganism EC (growth inhibition) (Escherichia coli): +
Microorganism BS (growth inhibition) (Bacillus Subtilus): -
Microorganism MP (growth inhibition) (Mima polymorpha): -
Microorganism HV (growth inhibition) (Herellea vaginicola): -
Microorganism PA (growth inhibition) (Pseudmonas aeruginosa): +
Microorganism SS (growth inhibition) (Streptococcus Sp): +

Cc1cc2c3c(c1C)c(=O)c(C(=O)O)cn3C(C)CO2 (stereo not drawn) [Example 40 (acid)]
Microorganism SA (growth inhibition) (Staphylococcus aureus): +
Microorganism EC (growth inhibition) (Escherichia coli): +
Microorganism BS (growth inhibition) (Bacillus Subtilus): +
Microorganism MP (growth inhibition) (Mima polymorpha): +
Microorganism HV (growth inhibition) (Herellea vaginicola): +
Microorganism PA (growth inhibition) (Pseudmonas aeruginosa): +
Microorganism SS (growth inhibition) (Streptococcus Sp): +

Cc1cc(Cl)c2c(=O)c(C(=O)O)cn3c2c1OCC3C (stereo not drawn) [Example 41 (acid)]
Microorganism SA (growth inhibition) (Staphylococcus aureus): +
Microorganism EC (growth inhibition) (Escherichia coli): +
Microorganism BS (growth inhibition) (Bacillus Subtilus): +
Microorganism MP (growth inhibition) (Mima polymorpha): -
Microorganism HV (growth inhibition) (Herellea vaginicola): +
Microorganism PA (growth inhibition) (Pseudmonas aeruginosa): -
Microorganism SS (growth inhibition) (Streptococcus Sp): -

CCOC(=O)c1cn2c3c(c(C)cc(Cl)c3c1=O)OCC2C (stereo not drawn) [Example 41 (ester)]
Microorganism SA (growth inhibition) (Staphylococcus aureus): +
Microorganism EC (growth inhibition) (Escherichia coli): +
Microorganism BS (growth inhibition) (Bacillus Subtilus): +
Microorganism MP (growth inhibition) (Mima polymorpha): -
Microorganism HV (growth inhibition) (Herellea vaginicola): +
Microorganism PA (growth inhibition) (Pseudmonas aeruginosa): -
Microorganism SS (growth inhibition) (Streptococcus Sp): -

Cc1cc(C)c2c(=O)c(C(=O)O)cn3c2c1OCC3C (stereo not drawn) [Example 42 (acid)]
Microorganism SA (growth inhibition) (Staphylococcus aureus): +
Microorganism EC (growth inhibition) (Escherichia coli): +
Microorganism BS (growth inhibition) (Bacillus Subtilus): +
Microorganism MP (growth inhibition) (Mima polymorpha): +
Microorganism HV (growth inhibition) (Herellea vaginicola): +
Microorganism PA (growth inhibition) (Pseudmonas aeruginosa): +
Microorganism SS (growth inhibition) (Streptococcus Sp): +

CCOC(=O)c1cn2c3c(c(C)cc(C)c3c1=O)OCC2C (stereo not drawn) [Example 42 (ester)]
Microorganism SA (growth inhibition) (Staphylococcus aureus): -
Microorganism EC (growth inhibition) (Escherichia coli): -
Microorganism BS (growth inhibition) (Bacillus Subtilus): +
Microorganism MP (growth inhibition) (Mima polymorpha): -
Microorganism HV (growth inhibition) (Herellea vaginicola): -
Microorganism PA (growth inhibition) (Pseudmonas aeruginosa): -
Microorganism SS (growth inhibition) (Streptococcus Sp): -

O=C(O)c1cn2c3c(cc(F)cc3c1=O)OCC2 [Example 43 (acid)]
Microorganism SA (growth inhibition) (Staphylococcus aureus): +
Microorganism EC (growth inhibition) (Escherichia coli): +
Microorganism BS (growth inhibition) (Bacillus Subtilus): +
Microorganism MP (growth inhibition) (Mima polymorpha): -
Microorganism HV (growth inhibition) (Herellea vaginicola): +
Microorganism PA (growth inhibition) (Pseudmonas aeruginosa): -
Microorganism SS (growth inhibition) (Streptococcus Sp): +

CC1COc2ccc([N+](=O)[O-])c3c(=O)c(C(=O)O)cn1c23 (stereo not drawn) [Example 44, 2,3-dihydro-3-methyl-8-nitro-7-oxo-7H-pyrido[1,2,3-de]-1,4-benzoxazine-6-carboxylic acid]
Microorganism SA (growth inhibition) (Staphylococcus aureus): +
Microorganism EC (growth inhibition) (Escherichia coli): +
Microorganism BS (growth inhibition) (Bacillus Subtilus): +
Microorganism MP (growth inhibition) (Mima polymorpha): -
Microorganism HV (growth inhibition) (Herellea vaginicola): +
Microorganism PA (growth inhibition) (Pseudmonas aeruginosa): -
Microorganism SS (growth inhibition) (Streptococcus Sp): -

Reference: patent US3984548A, “Substituted pyrido[1,2,3,-de]-1,4-benzoxazines as bactericides” (Riker Laboratories, Inc., priority 1974, dated 1976)
